Experimental findings from patent publication US9636418B2 (priority 2013, dated 2017) are described below.

One may read the IC50 as the concentration that gives 50% inhibition.

Each structure is given as a SMILES string. Where “and” joins values, the source holds several entries; their conditions need not be identical. Equal entries are not always repeated. Where two headings read alike, the source gives them in different places. Where only a bound is given, the exact number is not on record here.

Common to all, as to experiment: cell-based
Test [1] concerns the target T1, hNav1.5 (Homo sapiens, UniProt Q14524). As to conditions: for IC50: PatchXpress, read-out: PX hNav1.5 Tonic IC50; for Nav1.5/Nav1.7: ratio of PX IC50 values.
Test [2] deals with T1, hNav1.5. Particulars: IonWorks Quattro; read-out: IC50 Nav1.5. For orientation: In patch-clamp work, channel activity is measured electrically.
Test [3] deals with T2, hNav1.4 (Homo sapiens, UniProt P35499). As to conditions: for IC50: IonWorks Quattro, read-out: IC50 Nav1.4; for Nav1.4/Nav1.7: ratio of IonWorks Quattro IC50 values.
The target in test [4] is T2, hNav1.4. Particulars: for IC50: PatchXpress, read-out: PX hNav1.4 Tonic IC50.
The target of test [5] is T3, hNav1.7 (Homo sapiens, UniProt Q15858). In kind it is cell-based. Particulars: PatchXpress, read-out: PX hNav1.7 Tonic IC50.
For test [6], the target named is hNav1.3 (Homo sapiens, UniProt Q9NY46). Particulars: IonWorks Quattro; read-out: IC50 Nav1.3.
hNav1.3, sequence (Q9NY46 whole entry): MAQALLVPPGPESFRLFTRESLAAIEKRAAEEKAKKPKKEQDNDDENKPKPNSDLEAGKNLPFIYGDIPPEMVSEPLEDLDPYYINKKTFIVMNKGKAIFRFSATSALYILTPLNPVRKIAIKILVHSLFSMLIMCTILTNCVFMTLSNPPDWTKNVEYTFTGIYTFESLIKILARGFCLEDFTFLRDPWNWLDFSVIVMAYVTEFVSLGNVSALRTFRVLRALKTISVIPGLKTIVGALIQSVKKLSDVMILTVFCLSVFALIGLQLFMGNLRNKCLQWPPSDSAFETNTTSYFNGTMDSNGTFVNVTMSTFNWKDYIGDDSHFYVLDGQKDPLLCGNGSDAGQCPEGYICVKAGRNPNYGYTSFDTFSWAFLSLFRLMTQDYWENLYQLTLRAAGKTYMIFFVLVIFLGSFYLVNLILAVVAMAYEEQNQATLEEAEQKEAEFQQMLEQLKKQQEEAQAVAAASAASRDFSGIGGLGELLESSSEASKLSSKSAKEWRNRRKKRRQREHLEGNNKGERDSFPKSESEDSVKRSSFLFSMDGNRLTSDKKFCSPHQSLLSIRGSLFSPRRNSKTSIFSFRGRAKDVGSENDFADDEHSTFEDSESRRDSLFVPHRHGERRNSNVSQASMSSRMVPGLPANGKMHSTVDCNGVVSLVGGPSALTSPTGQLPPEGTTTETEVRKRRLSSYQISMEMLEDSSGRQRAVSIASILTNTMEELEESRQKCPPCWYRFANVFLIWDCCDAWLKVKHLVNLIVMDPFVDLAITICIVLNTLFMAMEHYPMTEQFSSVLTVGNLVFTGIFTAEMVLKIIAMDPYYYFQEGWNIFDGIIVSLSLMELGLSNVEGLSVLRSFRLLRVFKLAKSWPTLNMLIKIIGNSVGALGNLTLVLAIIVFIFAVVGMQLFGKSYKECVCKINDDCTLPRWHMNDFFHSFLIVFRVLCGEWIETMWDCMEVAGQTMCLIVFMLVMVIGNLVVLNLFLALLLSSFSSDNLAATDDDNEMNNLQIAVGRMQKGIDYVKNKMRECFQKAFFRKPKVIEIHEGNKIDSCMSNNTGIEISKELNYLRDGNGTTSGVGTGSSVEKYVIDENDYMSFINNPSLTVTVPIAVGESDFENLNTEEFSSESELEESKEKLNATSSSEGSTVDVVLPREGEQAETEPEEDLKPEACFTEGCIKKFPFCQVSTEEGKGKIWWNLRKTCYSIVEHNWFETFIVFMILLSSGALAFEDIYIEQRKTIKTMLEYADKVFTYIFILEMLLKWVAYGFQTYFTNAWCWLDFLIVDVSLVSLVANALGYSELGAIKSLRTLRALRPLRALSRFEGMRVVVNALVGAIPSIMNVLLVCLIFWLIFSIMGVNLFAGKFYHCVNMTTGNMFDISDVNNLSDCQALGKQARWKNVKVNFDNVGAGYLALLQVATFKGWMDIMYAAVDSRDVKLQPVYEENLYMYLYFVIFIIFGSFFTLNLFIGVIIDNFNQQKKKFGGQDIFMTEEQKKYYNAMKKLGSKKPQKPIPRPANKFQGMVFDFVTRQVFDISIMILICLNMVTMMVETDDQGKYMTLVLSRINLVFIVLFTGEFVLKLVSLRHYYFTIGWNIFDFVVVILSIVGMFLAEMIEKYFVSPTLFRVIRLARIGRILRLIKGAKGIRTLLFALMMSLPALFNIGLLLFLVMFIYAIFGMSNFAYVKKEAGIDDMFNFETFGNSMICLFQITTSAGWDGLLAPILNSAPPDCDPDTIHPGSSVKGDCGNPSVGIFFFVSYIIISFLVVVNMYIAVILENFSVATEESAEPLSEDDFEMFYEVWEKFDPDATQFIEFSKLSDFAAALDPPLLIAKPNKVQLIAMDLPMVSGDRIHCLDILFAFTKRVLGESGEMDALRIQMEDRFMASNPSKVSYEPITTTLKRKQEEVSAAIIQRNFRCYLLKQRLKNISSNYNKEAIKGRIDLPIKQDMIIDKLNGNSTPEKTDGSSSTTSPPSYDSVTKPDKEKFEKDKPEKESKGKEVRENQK
Test [7] has as its target T3, hNav1.7. Particulars: IonWorks Quattro; read-out: IC50 Nav1.7.
[8] abbreviates: * = at high concentrations compound would wash off slowly or not at all.

T1 sequence (Q14524 whole entry): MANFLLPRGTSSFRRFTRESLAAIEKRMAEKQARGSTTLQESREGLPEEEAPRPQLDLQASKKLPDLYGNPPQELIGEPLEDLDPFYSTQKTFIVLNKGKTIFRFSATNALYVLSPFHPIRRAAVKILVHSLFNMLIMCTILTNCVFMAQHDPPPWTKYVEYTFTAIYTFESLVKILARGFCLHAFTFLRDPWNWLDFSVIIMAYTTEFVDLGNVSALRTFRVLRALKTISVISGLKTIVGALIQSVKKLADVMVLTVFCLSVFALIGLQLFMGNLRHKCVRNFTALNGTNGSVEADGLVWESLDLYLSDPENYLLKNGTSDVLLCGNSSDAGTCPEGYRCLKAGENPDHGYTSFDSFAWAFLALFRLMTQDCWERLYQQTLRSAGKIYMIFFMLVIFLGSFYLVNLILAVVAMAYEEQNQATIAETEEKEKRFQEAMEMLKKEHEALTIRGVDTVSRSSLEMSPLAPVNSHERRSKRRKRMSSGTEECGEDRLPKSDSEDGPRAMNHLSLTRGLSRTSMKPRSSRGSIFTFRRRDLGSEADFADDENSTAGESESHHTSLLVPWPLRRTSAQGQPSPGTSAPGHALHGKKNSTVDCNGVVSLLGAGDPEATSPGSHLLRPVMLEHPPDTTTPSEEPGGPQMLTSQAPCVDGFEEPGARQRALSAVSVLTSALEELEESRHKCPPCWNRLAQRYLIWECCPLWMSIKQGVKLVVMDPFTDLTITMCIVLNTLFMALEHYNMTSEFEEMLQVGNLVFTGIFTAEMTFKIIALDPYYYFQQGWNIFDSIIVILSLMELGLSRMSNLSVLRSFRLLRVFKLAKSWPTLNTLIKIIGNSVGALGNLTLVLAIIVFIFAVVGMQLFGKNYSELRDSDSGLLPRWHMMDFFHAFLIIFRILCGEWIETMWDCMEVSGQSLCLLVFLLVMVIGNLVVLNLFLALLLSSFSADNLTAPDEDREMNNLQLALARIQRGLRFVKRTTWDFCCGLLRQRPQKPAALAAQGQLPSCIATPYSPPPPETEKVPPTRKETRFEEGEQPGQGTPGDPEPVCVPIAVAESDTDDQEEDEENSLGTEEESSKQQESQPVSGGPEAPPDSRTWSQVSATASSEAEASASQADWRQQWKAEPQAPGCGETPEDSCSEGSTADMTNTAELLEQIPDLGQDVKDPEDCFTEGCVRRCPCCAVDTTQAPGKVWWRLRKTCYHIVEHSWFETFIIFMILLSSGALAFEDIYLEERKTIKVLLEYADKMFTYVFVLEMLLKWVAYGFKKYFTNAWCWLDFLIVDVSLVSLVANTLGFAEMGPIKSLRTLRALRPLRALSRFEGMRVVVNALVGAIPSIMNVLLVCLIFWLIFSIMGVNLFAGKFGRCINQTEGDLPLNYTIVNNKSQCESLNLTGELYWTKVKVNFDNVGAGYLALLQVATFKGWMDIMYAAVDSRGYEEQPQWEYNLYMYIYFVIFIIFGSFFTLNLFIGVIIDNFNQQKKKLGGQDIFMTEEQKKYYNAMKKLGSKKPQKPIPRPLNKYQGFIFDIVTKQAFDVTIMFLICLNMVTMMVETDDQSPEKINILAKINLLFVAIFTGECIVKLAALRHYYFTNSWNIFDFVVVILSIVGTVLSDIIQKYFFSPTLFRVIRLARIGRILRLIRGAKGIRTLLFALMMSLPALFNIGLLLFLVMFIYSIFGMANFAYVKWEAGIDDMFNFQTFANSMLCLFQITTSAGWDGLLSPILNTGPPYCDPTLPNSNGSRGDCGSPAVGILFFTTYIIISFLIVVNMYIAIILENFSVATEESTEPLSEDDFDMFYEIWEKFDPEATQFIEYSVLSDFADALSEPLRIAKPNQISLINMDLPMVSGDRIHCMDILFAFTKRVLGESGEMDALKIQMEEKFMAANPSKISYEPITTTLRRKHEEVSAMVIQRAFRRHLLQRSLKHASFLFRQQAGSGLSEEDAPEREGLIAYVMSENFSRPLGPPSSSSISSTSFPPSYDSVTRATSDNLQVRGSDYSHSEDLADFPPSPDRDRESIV

As to `CC[C@H](C)[C@H](NC(=O)[C@H](CCCNC(N)=O)NC(=O)[C@H](CCCCN)NC(=O)[C@H](CCCNC(=N)N)NC(=O)[C@@H]1CSSC[C@@H]2NC(=O)[C@H](C)NC(=O)[C@H](CCCNC(=N)N)NC(=O)[C@H](CCCCN)NC(=O)[C@H](CO)NC(=O)[C@H](CC(=O)O)NC(=O)[C@@H]3CSSC[C@H](NC(=O)[C@H](CCC(=O)O)NC(=O)[C@H](CC(C)C)NC(=O)CNC(=O)[C@H](CCC(=O)O)NC(=O)[C@H](CSSC[C@H](NC(=O)[C@@H](N)Cc4ccc(O)cc4)C(=O)N[C@@H](CCC(N)=O)C(=O)N[C@@H](CCCCN)C(=O)N[C@@H](Cc4c[nH]c5ccccc45)C(=O)N[C@@H](CCSC)C(=O)N[C@@H](Cc4c[nH]c5ccccc45)C(=O)N[C@@H]([C@@H](C)O)C(=O)N3)NC2=O)C(=O)N[C@@H](CCCCN)C(=O)N[C@@H](CC(C)C)C(=O)N[C@@H](Cc2c[nH]c3ccccc23)C(=O)N1)C(N)=O` [compound 135], the half-inhibitory concentration (IC50) is over 10000 nM in test [1] (setting [8]); 12000 nM in test [2]; over 5000 nM in test [3]; 6020 nM in test [4] (setting [8]); 5.6 nM in test [5] (setting [8]); over 5000 nM in test [6]. For the same compound, the IC50 in test [7] came to 110 nM. Moreover, the Nav1.4/Nav1.7 in test [3] was determined as 46.

`CC[C@H](C)[C@H](NC(=O)[C@H](Cc1ccc(O)cc1)NC(=O)[C@H](CCCCN)NC(=O)[C@H](CCCNC(=N)N)NC(=O)[C@@H]1CSSC[C@@H]2NC(=O)[C@H](C)NC(=O)[C@H](CCCNC(=N)N)NC(=O)[C@H](CCCCN)NC(=O)[C@H](CO)NC(=O)[C@H](CC(=O)O)NC(=O)[C@@H]3CSSC[C@H](NC(=O)[C@H](CCC(=O)O)NC(=O)[C@H](CC(C)C)NC(=O)CNC(=O)[C@H](CCC(=O)O)NC(=O)[C@H](CSSC[C@H](NC(=O)[C@@H](N)Cc4ccc(O)cc4)C(=O)N[C@@H](CCC(N)=O)C(=O)N[C@@H](CCCCN)C(=O)N[C@@H](Cc4ccc(I)cc4)C(=O)N[C@@H](CCSC)C(=O)N[C@@H](Cc4c[nH]c5ccccc45)C(=O)N[C@@H]([C@@H](C)O)C(=O)N3)NC2=O)C(=O)N[C@@H](CCCCN)C(=O)N[C@@H](CC(C)C)C(=O)N[C@@H](Cc2c[nH]c3ccccc23)C(=O)N1)C(N)=O` [compound 192]: the IC50 in test [1] (setting [8]) was over 1000 nM; in test [2], over 5000 nM; in test [3] it was 3400 nM; in test [4] (setting [8]) it was 172 nM; in test [5] (setting [8]) it was 2.2 nM; in test [6], 1300 nM. For the same compound, the IC50 in test [7] was 110 nM. Besides, the figures for the Nav1.4/Nav1.7 in test [3] and in test [4] (ratio of PX IC50 values) were 30 and 78, respectively.

In the case of `CC[C@H](C)[C@H](NC(=O)[C@@H](NC(=O)[C@H](CCCCN)NC(=O)[C@H](CCCNC(=N)N)NC(=O)[C@@H]1CSSC[C@@H]2NC(=O)[C@H](C)NC(=O)[C@H](CCCNC(=N)N)NC(=O)[C@H](CCCCN)NC(=O)[C@H](CO)NC(=O)[C@H](CC(=O)O)NC(=O)[C@@H]3CSSC[C@H](NC(=O)[C@H](CC(=O)O)NC(=O)[C@H](CC(C)C)NC(=O)CNC(=O)[C@H](CCC(=O)O)NC(=O)[C@H](CSSC[C@H](NC(=O)[C@@H](N)Cc4ccc(O)cc4)C(=O)N[C@@H](CCC(N)=O)C(=O)N[C@@H](CCCCN)C(=O)N[C@@H](Cc4c[nH]c5ccccc45)C(=O)N[C@@H](CCSC)C(=O)N[C@@H](Cc4c[nH]c5ccccc45)C(=O)N[C@@H]([C@@H](C)O)C(=O)N3)NC2=O)C(=O)N[C@@H](CCCCN)C(=O)N[C@@H](CC(C)C)C(=O)N[C@@H](Cc2c[nH]c3ccccc23)C(=O)N1)[C@@H](C)CC)C(N)=O` [compound 115], the half-inhibitory concentration (IC50) in test [1] (setting [8]) was 3200 nM; in test [2], 11100 nM; in test [3], over 5000 nM; in test [4] (setting [8]), 7600 nM; in test [5] (setting [8]) it was 749 nM; in test [6], over 5000 nM. Further, the IC50 in test [7] stood at 90 nM. Further, the Nav1.5/Nav1.7 in test [1] was 4. The Nav1.4/Nav1.7 was 53 in test [3] and 10 in test [4] (ratio of PX IC50 values).

`CSCC[C@@H]1NC(=O)[C@H](Cc2c[nH]c3ccccc23)NC(=O)[C@H](CCCCN)NC(=O)[C@H](CCC(N)=O)NC(=O)[C@@H](NC(=O)[C@@H](N)Cc2ccc(O)cc2)CSSC[C@@H]2NC(=O)[C@@H]3CSSC[C@@H](C(=O)N[C@@H](CCCNC(=N)N)C(=O)N[C@@H](CCCCN)C(=O)N[C@@H](Cc4ccc(O)cc4)C(=O)N[C@@H](Cc4cccc5ccccc45)C(N)=O)NC(=O)[C@H](Cc4c[nH]c5ccccc45)NC(=O)[C@H](CC(C)C)NC(=O)[C@H](CCCCN)NC(=O)[C@H](CSSC[C@H](NC(=O)[C@H]([C@@H](C)O)NC(=O)[C@H](Cc4c[nH]c5ccccc45)NC1=O)C(=O)N[C@@H](CC(=O)O)C(=O)N[C@@H](CO)C(=O)N[C@@H](CCCCN)C(=O)N[C@@H](CCCNC(=N)N)C(=O)N[C@@H](C)C(=O)N3)NC(=O)[C@H](CCC(=O)O)NC(=O)[C@H](CC(C)C)NC(=O)CNC(=O)[C@H](CCC(=O)O)NC2=O` [compound 232]: the IC50 came to 2160 nM in test [1] (setting [8]); 4600 nM in test [2]; 4600 nM in test [3]; 1670 nM in test [4] (setting [8]); 4.5 nM in test [5] (setting [8]); 2100 nM in test [6]. Further, the IC50 in test [7] turned out to be 50 nM. Besides, in test [1], the Nav1.5/Nav1.7 was 480. Further, the Nav1.4/Nav1.7 in test [3] came to 91.

For `CCC[C@H](NC(=O)[C@H](CCCCN)NC(=O)[C@H](CCCNC(=N)N)NC(=O)[C@@H]1CSSC[C@@H]2NC(=O)[C@H](C)NC(=O)[C@H](CCCNC(=N)N)NC(=O)[C@H](CCCCN)NC(=O)[C@H](CO)NC(=O)[C@H](CC(=O)O)NC(=O)[C@@H]3CSSC[C@H](NC(=O)[C@H](CCC(=O)O)NC(=O)[C@H](CC(C)C)NC(=O)CNC(=O)[C@H](CCC(=O)O)NC(=O)[C@H](CSSC[C@H](NC(=O)[C@@H](N)Cc4ccc(O)cc4)C(=O)N[C@@H](CCC(N)=O)C(=O)N[C@@H](CCCCN)C(=O)N[C@@H](Cc4c[nH]c5ccccc45)C(=O)N[C@@H](CCSC)C(=O)N[C@@H](Cc4c[nH]c5ccccc45)C(=O)N[C@@H]([C@@H](C)O)C(=O)N3)NC2=O)C(=O)N[C@@H](CCCCN)C(=O)N[C@@H](CC(C)C)C(=O)N[C@@H](Cc2c[nH]c3ccccc23)C(=O)N1)C(=O)N[C@H](C(N)=O)[C@@H](C)CC` [compound 136], the IC50 is 7820 nM in test [1] (setting [8]); 8900 nM and 15800 nM in test [2]; over 5000 nM in test [3]; 5190 nM in test [4] (setting [8]); 12.8 nM in test [5] (setting [8]); over 5000 nM in test [6]. Also, in test [7], the IC50 was 80 nM and 150 nM. For the same compound, the Nav1.4/Nav1.7 in test [3] was 66 and 34.

As for `CSCC[C@@H]1NC(=O)[C@H](Cc2c[nH]c3ccccc23)NC(=O)[C@H](CCCCN)NC(=O)[C@H](CCC(N)=O)NC(=O)[C@@H](NC(=O)[C@@H](N)Cc2ccc(O)cc2)CSSC[C@@H]2NC(=O)[C@@H]3CSSC[C@@H](C(=O)N[C@@H](CCCNC(=N)N)C(=O)N[C@@H](CCCCN)C(=O)N[C@@H](Cc4ccc(O)cc4)C(=O)N[C@@H](Cc4ccc5ccccc5c4)C(N)=O)NC(=O)[C@H](Cc4c[nH]c5ccccc45)NC(=O)[C@H](CC(C)C)NC(=O)[C@H](CCCCN)NC(=O)[C@H](CSSC[C@H](NC(=O)[C@H]([C@@H](C)O)NC(=O)[C@H](Cc4c[nH]c5ccccc45)NC1=O)C(=O)N[C@@H](CC(=O)O)C(=O)N[C@@H](CO)C(=O)N[C@@H](CCCCN)C(=O)N[C@@H](CCCNC(=N)N)C(=O)N[C@@H](C)C(=O)N3)NC(=O)[C@H](CCC(=O)O)NC(=O)[C@H](CC(C)C)NC(=O)CNC(=O)[C@H](CCC(=O)O)NC2=O` [compound 233], the IC50 was 1990 nM in test [1] (setting [8]); over 5000 nM in test [2]; over 5000 nM in test [3]; 1220 nM in test [4] (setting [8]); 4.6 nM in test [5] (setting [8]); 2200 nM in test [6]. The IC50 in test [7] is 44 nM.

Regarding `C#CC[C@@H]1NC(=O)[C@H](CCCNC(=N)N)NC(=O)[C@H](CCCCN)NC(=O)[C@H](CO)NC(=O)[C@H](CC(=O)O)NC(=O)[C@@H]2CSSC[C@@H]3NC(=O)[C@H](CCCNC(=N)N)NC(=O)[C@H](CC(C)C)NC(=O)CNC(=O)[C@H](CCC(=O)O)NC(=O)[C@H](CSSC[C@H](NC(=O)[C@@H](N)Cc4ccc(O)cc4)C(=O)N[C@@H](CCC(N)=O)C(=O)N[C@@H](CCCCN)C(=O)N[C@@H](Cc4c[nH]c5ccccc45)C(=O)N[C@@H](CCCC)C(=O)N[C@@H](Cc4c[nH]c5ccccc45)C(=O)N[C@@H]([C@@H](C)O)C(=O)N2)NC(=O)[C@H](CSSC[C@@H](C(=O)N[C@@H](CCCNC(=N)N)C(=O)N[C@@H](CCCCN)C(=O)N[C@H](C(=O)N[C@H](C(N)=O)[C@@H](C)CC)[C@@H](C)CC)NC(=O)[C@H](Cc2c[nH]c4ccccc24)NC(=O)[C@H](CC(C)C)NC(=O)[C@H](CCCCN)NC3=O)NC1=O` [compound 283], the IC50 is 630 nM in test [1] (tonic block); over 7000 nM in test [2]; 90 nM in test [3]; 5 nM in test [4] (tonic block); 0.3 nM in test [5] (tonic block); 60 nM in test [6]. Further, in test [7], the IC50 came out at 70 nM. The Nav1.4/Nav1.7 in test [3] turned out to be 1; in test [4] (ratio of PX tonic IC50 values), 17.
